Consider 5 molecules from ChEMBL document CHEMBL1124634, “Synthesis and antirhinovirus activity of 6-(dimethylamino)-2-(trifluoromethyl)-9-(substituted benzyl)-9H-purines” (J Med Chem, 1989).

Test [1] is described as follows: Antiviral activity against rhinoviral 18 serotype in a plaque inhibition assay using monolayers of M-HeLa cells at 8 uM. It counts as functional, cell-based. Conditions: Homo sapiens.
In test [2] the test system is Human rhinovirus sp. Put plainly: Antiviral activity against rhinoviral 29 serotype in a plaque inhibition assay using monolayers of M-HeLa cells. It counts as functional, organism-based.
Test [3] concerns Human rhinovirus sp. The experiment in a line: Antiviral activity against rhinoviral 4 serotype in a plaque inhibition assay using monolayers of M-HeLa cells. It is filed as functional, organism-based.
Test [4] has as its system Human rhinovirus sp. Put plainly: Antiviral activity against rhinoviral 8 serotype in a plaque inhibition assay using monolayers of M-HeLa cells. It counts as functional, organism-based.
Test [5] concerns Human rhinovirus sp. The experiment in a line: Antiviral activity against rhinoviral 14 serotype in a plaque inhibition assay using monolayers of M-HeLa cells. It counts as functional, organism-based.
Test [6] deals with Human rhinovirus sp. Put plainly: Antiviral activity against rhinoviral 15 serotype in a plaque inhibition assay using monolayers of M-HeLa cells. It is filed as functional, organism-based.
Test [7] concerns Human rhinovirus sp. Put plainly: Antiviral activity against rhinoviral 16 serotype in a plaque inhibition assay using monolayers of M-HeLa cells. It counts as functional, organism-based.
Test [8] concerns Human rhinovirus sp. Put plainly: Antiviral activity against rhinoviral 12 serotype in a plaque inhibition assay using monolayers of M-HeLa cells. It counts as functional, organism-based.
The subject of test [9] is Human rhinovirus sp. The experiment in a line: Antiviral activity against rhinoviral-1A serotype in a plaque inhibition assay using monolayers of M-HeLa cells. It counts as functional, organism-based.
The test system of test [10] is Human rhinovirus sp. Put plainly: Antiviral activity against rhinoviral-1B serotype in a plaque inhibition assay using monolayers of M-HeLa cells. It counts as functional, organism-based.
In test [11] the test system is Human rhinovirus sp. Put plainly: Percent inhibitory activity at 8 uM against rhinoviral 13 serotype in a plaque inhibition assay using monolayers of M-HeLa cells. It counts as functional.
In test [12] the test system is Human rhinovirus sp. Put plainly: Percent inhibitory activity at 8 uM against rhinoviral 19s erotype in a plaque inhibition assay using monolayers of M-HeLa cells. It counts as functional.
In test [13] the test system is Human rhinovirus sp. The experiment in a line: Percent inhibitory activity at 8 uM against rhinoviral 21 serotype in a plaque inhibition assay using monolayers of M-HeLa cells. It counts as functional.
Test [14] relates to Human rhinovirus sp. Put plainly: Percent inhibitory activity at 8 uM against rhinoviral 31 serotype in a plaque inhibition assay using monolayers of M-HeLa cells. It counts as functional.
In test [15] the test system is Human rhinovirus sp. Put plainly: Percent inhibitory activity at 8 uM against rhinoviral 3 serotype in a plaque inhibition assay using monolayers of M-HeLa cells. It is filed as functional.
Test [16] deals with Human rhinovirus sp. The experiment in a line: Percent inhibitory activity at 8 uM against rhinoviral 5 serotype in a plaque inhibition assay using monolayers of M-HeLa cells. It counts as functional.
Test [17] can be described thus: Percent inhibitory activity at 8 uM against rhinoviral 2 serotype in a plaque inhibition assay using monolayers of M-HeLa cells. It is filed as functional, Homo sapiens.
The test system of test [18] is Human rhinovirus sp. Put plainly: Antiviral activity against rhinoviral 9 serotype in a plaque inhibition assay using monolayers of M-HeLa cells. It counts as functional, organism-based.
Test [19] deals with Human rhinovirus sp. The experiment in a line: Percent inhibitory activity at 8 uM against rhinoviral 30 serotype in a plaque inhibition assay using monolayers of M-HeLa cells. It is filed as functional.
Test [20] deals with Human rhinovirus sp. Put plainly: Antiviral activity against rhinoviral 2 serotype in a plaque inhibition assay using monolayers of M-HeLa cells. It is filed as functional, organism-based.
Test [21] has as its system Human rhinovirus sp. The experiment in a line: Antiviral activity against rhinoviral-19 serotype in a plaque inhibition assay using monolayers of M-HeLa cells. It counts as functional, organism-based.
The nature of test [22]: Percent inhibitory activity at 8 uM against rhinoviral 18 serotype in a plaque inhibition assay using monolayers of M-HeLa cells. It is filed as functional, Homo sapiens.
In test [23] the test system is Human rhinovirus sp. Put plainly: Percent inhibitory activity at 8 uM against rhinoviral 29 serotype in a plaque inhibition assay using monolayers of M-HeLa cells. It is filed as functional.
The test system of test [24] is Human rhinovirus sp. Put plainly: Antiviral activity against rhinoviral 5 serotype in a plaque inhibition assay using monolayers of M-HeLa cells. It counts as functional, organism-based.
Test [25] has as its system Human rhinovirus sp. Put plainly: Antiviral activity against rhinoviral 18 serotype in a plaque inhibition assay using monolayers of M-HeLa cells. It is filed as functional, organism-based.
Test [26] relates to Human rhinovirus sp. The experiment in a line: Antiviral activity against rhinoviral 19 serotype in a plaque inhibition assay using monolayers of M-HeLa cells. It is filed as functional, organism-based.
Test [27] can be described thus: Percent inhibitory activity at 10 uM against rhinoviral 5 serotype in a plaque inhibition assay using monolayers of M-HeLa cells. It counts as functional, Homo sapiens.
The nature of test [28]: Percent inhibitory activity at 4 uM against rhinoviral-1A serotype in a plaque inhibition assay using monolayers of M-HeLa cells. It is filed as functional, Homo sapiens.
For test [29], the system named is Human rhinovirus sp. The experiment in a line: Percent inhibitory activity at 8 uM against rhinoviral 15 serotype in a plaque inhibition assay using monolayers of M-HeLa cells. It is filed as functional.
For test [30], the system named is Human rhinovirus sp. The experiment in a line: Antiviral activity against rhinoviral 30 serotype in a plaque inhibition assay using monolayers of M-HeLa cells. It is filed as functional, organism-based.
For test [31], the system named is Human rhinovirus sp. The experiment in a line: Antiviral activity against rhinoviral 3 serotype in a plaque inhibition assay using monolayers of M-HeLa cells. It is filed as functional, organism-based.
Test [32] can be described thus: Antiviral activity against rhinoviral 13 serotype in a plaque inhibition assay using monolayers of M-HeLa cells. It counts as functional, cell-based. Conditions: Homo sapiens.
The subject of test [33] is Human rhinovirus sp. Put plainly: Antiviral activity against rhinoviral 21 serotype in a plaque inhibition assay using monolayers of M-HeLa cells. It counts as functional, organism-based.
Test [34] relates to Human rhinovirus sp. The experiment in a line: Antiviral activity against rhinoviral 31 serotype in a plaque inhibition assay using monolayers of M-HeLa cells. It counts as functional, organism-based.
For test [35], the system named is Human rhinovirus sp. Put plainly: Antiviral activity against rhinoviral-18 serotype in a plaque inhibition assay using monolayers of M-HeLa cells. It counts as functional, organism-based.
Test [36] can be described thus: Percent inhibitory activity at 2.5 uM against rhinoviral 3 serotype in a plaque inhibition assay using monolayers of M-HeLa cells. It counts as functional, Homo sapiens.
Test [37] in a line: Percent inhibitory activity at 2.5 uM against rhinoviral 4 serotype in a plaque inhibition assay using monolayers of M-HeLa cells. It is filed as functional, Homo sapiens.
The nature of test [38]: Percent inhibitory activity at 2.5 uM against rhinoviral 8 serotype in a plaque inhibition assay using monolayers of M-HeLa cells. It counts as functional, Homo sapiens.
Test [39] is described as follows: Percent inhibitory activity at 5 uM against rhinoviral 16 serotype in a plaque inhibition assay using monolayers of M-HeLa cells. It counts as functional, Homo sapiens.

By IC50 is commonly meant the midpoint of a concentration-inhibition curve. A high value points to lower potency.

In the case of `CN(C)c1nc(C(F)(F)F)nc2c1ncn2Cc1ccccc1`, the IC50 in test [1] worked out at 10 µM; in the test on Human rhinovirus sp. [2], 3.2 µM; with Human rhinovirus sp. [3] it was 8.8 µM; in the test on Human rhinovirus sp. [4], 8 µM; with Human rhinovirus sp. [5], 8 µM; in the test with Human rhinovirus sp. [6], 4.8 µM. For the same molecule, the IC50 with Human rhinovirus sp. [7] came out at 0.96 µM; with Human rhinovirus sp. [8], 3.8 µM; in the test on Human rhinovirus sp. [9], 1.1 µM; in the test on Human rhinovirus sp. [10] it was 0.04 µM; with Human rhinovirus sp. [18], 0.46 µM. In addition, the Inhibition in the test with Human rhinovirus sp. [11] worked out at 22%; in the test on Human rhinovirus sp. [12], 32%; in the test on Human rhinovirus sp. [13], 28%; with Human rhinovirus sp. [14], 37%; with Human rhinovirus sp. [15], 20%; in the test on Human rhinovirus sp. [16], 33%. For the same molecule, the Inhibition in [17] was 33%; with Human rhinovirus sp. [19], 19%.

With `COc1ccc(Cn2cnc3c(N(C)C)nc(C(F)(F)F)nc32)cc1C`, the half-inhibitory concentration (IC50) with Human rhinovirus sp. [20] was 8 µM; with Human rhinovirus sp. [3], 5.5 µM; with Human rhinovirus sp. [4], > 8 µM; in the test on Human rhinovirus sp. [5] it was 7.5 µM; in the test with Human rhinovirus sp. [6] it was 9 µM; in the test with Human rhinovirus sp. [7], 1.9 µM. For the same molecule, the IC50 with Human rhinovirus sp. [8] is 4.1 µM; in the test on Human rhinovirus sp. [21], 8.6 µM; with Human rhinovirus sp. [9], 2.6 µM; in the test on Human rhinovirus sp. [10], 0.2 µM; in the test with Human rhinovirus sp. [24], > 8 µM; with Human rhinovirus sp. [18], 1.3 µM. Besides, the Inhibition stood at 12% in the test with Human rhinovirus sp. [11]; 35 µM in [22]; 16% in the test on Human rhinovirus sp. [13]; 27% in the test on Human rhinovirus sp. [23]; 28% in the test on Human rhinovirus sp. [15]; 20% in the test on Human rhinovirus sp. [19].

For `CN(C)c1nc(C(F)(F)F)nc2c1ncn2Cc1ccc([N+](=O)[O-])cc1`, the IC50 with Human rhinovirus sp. [25] is 5.9 µM; with Human rhinovirus sp. [26] it was 8.8 µM; with Human rhinovirus sp. [2], 10 µM; in the test on Human rhinovirus sp. [20] it was 8.3 µM; in the test with Human rhinovirus sp. [3], 4.1 µM; in the test on Human rhinovirus sp. [4] it was 8.1 µM. For the same molecule, the IC50 in the test with Human rhinovirus sp. [5] was found to be 8.6 µM; with Human rhinovirus sp. [7], 1.5 µM; with Human rhinovirus sp. [8] it was 8 µM; in the test with Human rhinovirus sp. [10], 0.07 µM; in the test with Human rhinovirus sp. [18] it was 5.6 µM. Moreover, the Inhibition was determined as 32% in test [27]; 38 µM in [28]; 13% in the test with Human rhinovirus sp. [11]; 31% with Human rhinovirus sp. [29]; 28% in the test with Human rhinovirus sp. [13]; 37% in the test with Human rhinovirus sp. [14]. The Inhibition with Human rhinovirus sp. [15] turned out to be 43%; in the test on Human rhinovirus sp. [19], 28%.

Regarding `CN(C)c1nc(C(F)(F)F)nc2c1ncn2Cc1ccc(Cl)cc1`, the IC50 in the test with Human rhinovirus sp. [25] is > 8 µM; in the test with Human rhinovirus sp. [26], 6.5 µM; in the test with Human rhinovirus sp. [2], 2.5 µM; with Human rhinovirus sp. [20] it was 6.6 µM; in the test with Human rhinovirus sp. [30], 6.5 µM; in the test on Human rhinovirus sp. [31], 6.9 µM. The half-inhibitory concentration (IC50) in the test with Human rhinovirus sp. [3] was 6.1 µM; in the test on Human rhinovirus sp. [4], 5.7 µM; in test [32], > 8 µM; with Human rhinovirus sp. [5], 4.3 µM; in the test with Human rhinovirus sp. [6], 3.3 µM; in the test with Human rhinovirus sp. [8], 7.4 µM. For the same molecule, the half-maximal inhibitory concentration (IC50) in the test with Human rhinovirus sp. [9] stood at 0.73 µM; with Human rhinovirus sp. [10], 0.03 µM; in the test on Human rhinovirus sp. [24], 8 µM; in the test on Human rhinovirus sp. [33], 7.4 µM; with Human rhinovirus sp. [18], 0.9 µM; with Human rhinovirus sp. [34] it was 5.3 µM.

In the case of `Cc1ccc(Cn2cnc3c(N(C)C)nc(C(F)(F)F)nc32)cc1`, the IC50 in the test on Human rhinovirus sp. [2] was 4.2 µM; in the test with Human rhinovirus sp. [20] it was 5.7 µM; with Human rhinovirus sp. [30], 2.2 µM; in test [32] it was 2.6 µM; in the test on Human rhinovirus sp. [5], 1.2 µM; in the test with Human rhinovirus sp. [6], 1 µM. Also, the IC50 in the test with Human rhinovirus sp. [8] stood at 2.6 µM; in the test with Human rhinovirus sp. [35] it was 1.8 µM; in the test with Human rhinovirus sp. [21], 6.7 µM; in the test on Human rhinovirus sp. [9], 0.1 µM; in the test on Human rhinovirus sp. [10], 0.03 µM; with Human rhinovirus sp. [18], 0.35 µM. Further, in the test on Human rhinovirus sp. [34], half-maximal inhibition (IC50) was put at 1.2 µM. Besides, the Inhibition in [36] was 43 µM; in test [37], 41 µM; in [38], 41 µM; in the test with Human rhinovirus sp. [13], 40%; with Human rhinovirus sp. [16] it was 18%; in [39], 12%.
